Key:
[1] = tested on: secretion of cytokine IL-8 into the human monocyte cell line THP-1; assay: Inhibition of LPS-triggered IL-8 secretion in THP-1 cells (ELISA of supernatant); type: cell-based
Protocol: The concentration of the cytokines was determined in the supernatant by means of commercially available ELISA kits.

[2] = target: T1, glucocorticoid receptor (GR) (Homo sapiens, UniProt P04150); assay: Binding to recombinantly produced glucocorticoid receptor (cytosol preparations of baculovirus-infected Sf9 cells, [3H]-dexamethasone as reference substance); details: recombinant GR
T1 construct: made in house; host or cells: Sf9 insect cells infected with recombinant baculovirus; cytosol preparation
T1 sequence (P04150 1-777): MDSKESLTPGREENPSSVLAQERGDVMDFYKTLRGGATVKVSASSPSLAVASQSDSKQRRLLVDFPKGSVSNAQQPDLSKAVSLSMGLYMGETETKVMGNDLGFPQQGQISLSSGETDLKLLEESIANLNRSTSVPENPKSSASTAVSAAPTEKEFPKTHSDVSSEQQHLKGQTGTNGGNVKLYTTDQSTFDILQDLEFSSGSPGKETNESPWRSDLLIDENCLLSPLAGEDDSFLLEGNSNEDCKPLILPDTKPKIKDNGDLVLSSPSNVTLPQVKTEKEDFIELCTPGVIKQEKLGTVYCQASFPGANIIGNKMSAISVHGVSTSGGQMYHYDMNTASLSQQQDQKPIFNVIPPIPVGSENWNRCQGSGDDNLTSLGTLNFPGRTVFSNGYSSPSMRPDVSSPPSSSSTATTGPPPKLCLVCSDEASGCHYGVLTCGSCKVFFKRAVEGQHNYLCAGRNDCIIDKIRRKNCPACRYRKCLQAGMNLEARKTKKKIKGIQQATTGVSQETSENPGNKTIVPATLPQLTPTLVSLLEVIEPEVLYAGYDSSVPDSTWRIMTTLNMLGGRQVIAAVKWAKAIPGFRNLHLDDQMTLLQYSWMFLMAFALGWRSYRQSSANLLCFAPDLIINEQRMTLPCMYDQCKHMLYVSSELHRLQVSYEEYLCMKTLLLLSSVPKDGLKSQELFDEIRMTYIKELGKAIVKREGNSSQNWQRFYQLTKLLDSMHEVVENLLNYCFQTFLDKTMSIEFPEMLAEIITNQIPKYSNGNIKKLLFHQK
Excerpt: The binding of the substances to the glucocorticoid receptor (GR) and other steroid hormone receptors (mineral corticoid receptor (MR), progesterone receptor (PR) and androgen receptor (AR)) is examined with the aid of recombinantly produced receptors. Cytosol preparations of Sf9 cells, which had been infected with recombinant baculoviruses, which code for the GR, are used for the binding studies. In comparison to reference substance [^3H]-dexamethasone, the substances show a high to very high affinity to GR. IC50(GR) = 11,5 nM was thus measured for the compound from Example A16.

IC50 ([1]; read-out: IC50(IL8)): 0.3 nM
IC50 [2]: 11.5 nM
SMILES: CC(C)(CC(O)(CNc1cccc2c1cnn2-c1ccc(F)nc1)C(F)(F)F)c1cccc2c1OCO2 (stereo not drawn) [Example A16]
Emax ([1]; efficacy relative to dexamethasone, read-out: eff. relative to dexamethasone): 94%

Source: EP1921068A1, “Indazole and indole derivatives as anti-inflammatory agents” (Bayer Schering Pharma Aktiengesellschaft, priority 2006, dated 2008)
